# In the NIST ThermoML archive (doi:10.1021/je300737t):
# ± gives the expanded uncertainty stated by the source.
# Experiments:
# [1] = xn = mol fraction of the nth substance listed; details: 101 kPa, Liquid; for mass density: Pycnometric method
# [2] = 101 kPa, Liquid; for mass density: Pycnometric method
compound,measurement,setting,value
CCCCOCCO [2-butoxyethan-1-ol] + O,mass density,"[1]; 298.15 K, x1 = 0.017",993.26 ± 3 kg/m3
same,mass density,"[1]; 298.15 K, x1 = 0.037",986.46 ± 3 kg/m3
same,mass density,"[1]; 298.15 K, x1 = 0.061",976.33 ± 3 kg/m3
same,mass density,"[1]; 298.15 K, x1 = 0.092",967.1 ± 3 kg/m3
same,mass density,"[1]; 298.15 K, x1 = 0.132",948.1 ± 10 kg/m3
same,mass density,"[1]; 298.15 K, x1 = 1",896.16 ± 1 kg/m3
same,viscosity,"[1]; 298.15 K, x1 = 0.017",1.284 ± 0.035 mPa·s
same,viscosity,"[1]; 298.15 K, x1 = 0.037",1.849 ± 0.045 mPa·s
same,viscosity,"[1]; 298.15 K, x1 = 0.061",2.45 ± 0.056 mPa·s
same,viscosity,"[1]; 298.15 K, x1 = 0.092",2.998 ± 0.069 mPa·s
same,viscosity,"[1]; 298.15 K, x1 = 0.132",3.918 ± 0.089 mPa·s
same,viscosity,"[1]; 298.15 K, x1 = 1",2.782 ± 0.065 mPa·s
same,mass density,"[1]; 303.15 K, x1 = 0.017",990.82 ± 3 kg/m3
same,mass density,"[1]; 303.15 K, x1 = 0.037",982.92 ± 3 kg/m3
same,mass density,"[1]; 303.15 K, x1 = 0.061",974.23 ± 3 kg/m3
same,mass density,"[1]; 303.15 K, x1 = 0.092",964.31 ± 3 kg/m3
same,mass density,"[1]; 303.15 K, x1 = 0.132",944.74 ± 10 kg/m3
same,mass density,"[1]; 303.15 K, x1 = 1",892.74 ± 1 kg/m3
same,viscosity,"[1]; 303.15 K, x1 = 0.017",1.131 ± 0.033 mPa·s
same,viscosity,"[1]; 303.15 K, x1 = 0.037",1.622 ± 0.041 mPa·s
same,viscosity,"[1]; 303.15 K, x1 = 0.061",2.161 ± 0.051 mPa·s
same,viscosity,"[1]; 303.15 K, x1 = 0.092",2.635 ± 0.061 mPa·s
same,viscosity,"[1]; 303.15 K, x1 = 0.132",3.394 ± 0.078 mPa·s
same,viscosity,"[1]; 303.15 K, x1 = 1",2.499 ± 0.059 mPa·s
same,mass density,"[1]; 308.15 K, x1 = 0.017",988.89 ± 3 kg/m3
same,mass density,"[1]; 308.15 K, x1 = 0.037",980.38 ± 3 kg/m3
same,mass density,"[1]; 308.15 K, x1 = 0.061",971.37 ± 3 kg/m3
same,mass density,"[1]; 308.15 K, x1 = 0.092",961.45 ± 3 kg/m3
same,mass density,"[1]; 308.15 K, x1 = 0.132",941.59 ± 10 kg/m3
same,mass density,"[1]; 308.15 K, x1 = 1",888.88 ± 1 kg/m3
same,viscosity,"[1]; 308.15 K, x1 = 0.017",0.9936 ± 0.03 mPa·s
same,viscosity,"[1]; 308.15 K, x1 = 0.037",1.465 ± 0.038 mPa·s
same,viscosity,"[1]; 308.15 K, x1 = 0.061",1.916 ± 0.046 mPa·s
same,viscosity,"[1]; 308.15 K, x1 = 0.092",2.334 ± 0.054 mPa·s
same,viscosity,"[1]; 308.15 K, x1 = 0.132",2.921 ± 0.068 mPa·s
same,viscosity,"[1]; 308.15 K, x1 = 1",2.206 ± 0.053 mPa·s
same,mass density,"[1]; 313.15 K, x1 = 0.017",985.94 ± 3 kg/m3
same,mass density,"[1]; 313.15 K, x1 = 0.037",977.64 ± 3 kg/m3
same,mass density,"[1]; 313.15 K, x1 = 0.061",968.64 ± 3 kg/m3
same,mass density,"[1]; 313.15 K, x1 = 0.092",958.48 ± 3 kg/m3
same,mass density,"[1]; 313.15 K, x1 = 0.132",937.57 ± 10 kg/m3
same,mass density,"[1]; 313.15 K, x1 = 1",884.29 ± 1 kg/m3
same,viscosity,"[1]; 313.15 K, x1 = 0.017",0.8871 ± 0.029 mPa·s
same,viscosity,"[1]; 313.15 K, x1 = 0.037",1.302 ± 0.036 mPa·s
same,viscosity,"[1]; 313.15 K, x1 = 0.061",1.754 ± 0.043 mPa·s
same,viscosity,"[1]; 313.15 K, x1 = 0.092",2.054 ± 0.049 mPa·s
same,viscosity,"[1]; 313.15 K, x1 = 0.132",2.539 ± 0.059 mPa·s
same,viscosity,"[1]; 313.15 K, x1 = 1",1.946 ± 0.048 mPa·s
CCCCOCCO [2-butoxyethan-1-ol],viscosity,[2]; 298.15 K,2.782 ± 0.065 mPa·s
same,mass density,[2]; 298.15 K,896.16 ± 1 kg/m3
same,viscosity,[2]; 303.15 K,2.499 ± 0.059 mPa·s
same,mass density,[2]; 303.15 K,892.74 ± 1 kg/m3
same,viscosity,[2]; 308.15 K,2.206 ± 0.053 mPa·s
same,mass density,[2]; 308.15 K,888.88 ± 1 kg/m3
same,viscosity,[2]; 313.15 K,1.946 ± 0.048 mPa·s
same,mass density,[2]; 313.15 K,884.29 ± 1 kg/m3
